The text below walks through data of patent US20220193064A1, “MEDICAMENT FOR TREATING CANCER” (CHIOME BIOSCIENCE INC., priority 2019, published 2022).

Read-outs that look alike come from different tables or passages of the source.

The subject of assay [1] is Hep3B xenograft model. In words: combined effect of lenvatinib and anti-hDLK-1 antibody on tumorigenesis inhibitory activity, Hep3B xenograft model. The assay is classed as in vivo, NOD/ShiJic-scidJcl mice. The conditions noted are these: for tumor weight: tumors collected on final day of observation (Day 38). The text has this: Using a Hep3B xenograft model, lenvatinib mesylate and anti-hDLK-1 antibody were studied for their combined effect on tumorigenesis inhibitory activity.
(§1) The lenvatinib mesylate used here was commercially available (hereinafter simply referred to as “lenvatinib” in this example). The anti-hDLK-1 antibody used here was “HuBA-1-3D-1-A24G/T73K antibody” found in WO2014/054820 (hereinafter simply referred to as “HuBA-1-3D antibody” in this example), and DNA encoding this antibody protein was constructed in accordance with the procedures shown in WO2014/054820 (see the Example section in the specification), followed by production and preparation of this antibody protein in host cells using the GlymaxX® technology (ProBioGen AG; see https://www.probiogen.de/genetic-glyco-engineering-adcc-glymaxx.html). It should be noted that the HuBA-1-3D-1-A24G/T73K antibody used here has an H chain V region consisting of the amino acid sequence shown in SEQ ID NO: 36 and an L chain V region consisting of the amino acid sequence shown in SEQ ID NO: 46.
1×10^6 Hep3B cells were transplanted subcutaneously into the right flank of female NOD/ShiJic-scidJcl mice at 6 to 7 weeks of age (Day 0). At the stage where the mean tumor volume reached around 100 mm^3 (Day 14), these mice were divided into the following groups: the control group (N=8, 103.5±18.1 mm^3), the group receiving lenvatinib (3 mg/kg body weight) (N=8, 102.8±16.8 mm^3), the group receiving HuBA-1-3D antibody (1 mg/kg body weight) (N=8, 102.7±15.0 mm^3), and the group receiving both lenvatinib (3 mg/kg body weight) and HuBA-1-3D antibody (1 mg/kg body weight) (N=8, 102.5±12.5 mm^3) (hereinafter referred to as the group receiving lenvatinib+HuBA-1-3D antibody). For a period of 12 days starting from Day 14, HuBA-1-3D antibody was administered twice a week (4 times in total; Days 14, 18, 22 and 25), and lenvatinib was administered 5 times a week (administration for 5 days and withdrawal for 2 days) (10 times in total; Days 14, 15, 16, 17, 18, 21, 22, 23, 24 and 25). The tumor volume was measured at a frequency of twice a week, and an animal whose tumor volume reached 1500 mm^3 was excluded from observation.

Assay [2] relates to HepG2 xenograft model. The assay can be described thus: combined effect of lenvatinib and anti-hDLK-1 antibody on tumorigenesis inhibitory activity, HepG2 xenograft model. The assay is classed as in vivo, NOD/ShiJic-scidJcl mice.
Source text: Using a HepG2 xenograft model, lenvatinib mesylate and anti-hDLK-1 antibody were studied for their combined effect on tumorigenesis inhibitory activity.
as §1
5×10^6 HepG2 cells were transplanted subcutaneously into the right flank of female NOD/ShiJic-scidJcl mice at 7 weeks of age (Day 0). At the stage where the mean tumor volume reached around 100 mm^3 (Day 10), these mice were divided into the following groups: the control group (N=8, 118.4±15 6 mm^3), the group receiving lenvatinib (10 mg/kg body weight) (N=8, 118.8±15.2 mm^3), the group receiving HuBA-1-3D antibody (1 mg/kg body weight) (N=8, 119.8±12.9 mm^3), and the group receiving both lenvatinib (10 mg/kg body weight) and HuBA-1-3D antibody (1 mg/kg body weight) (N=8, 119.7±13.4 mm^3) (hereinafter referred to as the group receiving lenvatinib+HuBA-1-3D antibody). For a period of 12 days starting from Day 10, HuBA-1-3D antibody was administered twice a week (4 times in total; Days 10, 13, 17 and 21), and lenvatinib was administered 5 times a week (administration for 5 days and withdrawal for 2 days) (10 times in total; Days 10, 11, 12, 13, 14, 17, 18, 19, 20 and 21). The tumor volume was measured at a frequency of twice a week, and an animal whose tumor volume reached 1500 mm^3 was excluded from observation.

Assay [3] concerns Hep3B xenograft model. In words: sensitivity to lenvatinib in Hep3B xenograft therapeutic model. It counts as in vivo, NOD/SCID mice. Conditions: Day 29; for tumor volume (mean±standard deviation): 5 times a week, N=8; for tumor volume ratio (T/C) relative to the vehicle group: P<0.05. The text has this: (§2) Two cell lines (Hep3B and HepG2) derived from human hepatocellular carcinoma were compared for their sensitivity to lenvatinib mesylate (commercially available; hereinafter simply referred to as “lenvatinib” in this example) in xenograft therapeutic models.
In a Hep3B xenograft model, NOD/SCID mice were transplanted with the cells subcutaneously, and then divided into groups of 8 mice each at the time when the mean tumor volume exceeded 100 mm^3 (Day 14), and administration was started on the same day. The administration was conducted at a dose of 10 μL/g per mouse body weight via the oral route with an oral sonde, 5 times a week (administration for 5 days and withdrawal for 2 days) (12 times in total; Days 14, 15, 16, 17, 18, 21, 22, 23, 24, 25, 28 and 29) until the final day of the test. The tumor volume (mean±standard deviation) at 29 days after transplantation (Day 29; the final day of the test) was 1050.3±553.8 mm^3 in the group receiving vehicle (water for injection) (N=8), 400.9±160.9 mm^3 in the group receiving lenvatinib (3 mg/kg) (N=8), 200.2±133.3 mm^3 in the group receiving lenvatinib (10 mg/kg) (N=8), and 136.2±33.8 mm^3 in the group receiving lenvatinib (30 mg/kg) (N=8). The tumor volume ratio (T/C) relative to the vehicle group on Day 29 was 38.2% (P<0.05), 19.1% (P<0.05) and 13.0% (P<0.05), respectively, in the groups receiving lenvatinib (3, 10 and 30 mg/kg) (FIG. 3A).

The test system of assay [4] is HepG2 xenograft model. In words: sensitivity to lenvatinib in HepG2 xenograft therapeutic model. The assay is classed as in vivo, NOD/SCID mice. The conditions noted are these: Day 28; for tumor volume (mean±standard deviation): 5 times a week, N=8; for tumor volume ratio (T/C) relative to the vehicle group: P<0.05.
Source text: as §2
NOD/SCID mice were transplanted with the cells subcutaneously, and then divided into groups of 8 mice each at the time when the mean tumor volume exceeded 100 mm^3 (Day 10), and administration was started on the same day. The administration was conducted at a dose of 10 μL/g per mouse body weight via the oral route with an oral sonde, 5 times a week (administration for 5 days and withdrawal for 2 days) (14 times in total; Days 10, 11, 12, 13, 14, 17, 18, 19, 20, 21, 24, 25, 26 and 27) until the day before the final day of the test. The tumor volume (mean±standard deviation) at 28 days after transplantation (Day 28; the final day of the test) was 1163.0±205.1 mm^3 in the group receiving vehicle (water for injection) (N=8), 892.5±220.7 mm^3 in the group receiving lenvatinib (3 mg/kg) (N=8), 506.8±215.7 mm^3 in the group receiving lenvatinib (10 mg/kg) (N=8), and 380.0±146.8 mm^3 in the group receiving lenvatinib (30 mg/kg) (N=8). The tumor volume ratio (T/C) relative to the vehicle group on Day 28 was 76.7% (P<0.05), 43.6% (P<0.05) and 32.7% (P<0.05), respectively, in the groups receiving lenvatinib (3, 10 and 30 mg/kg) (FIG. 3B).

Assay [5] relates to unresectable hepatocellular carcinoma. Conditions: cited from earlier work.
[6] abbreviates: Day 25 (final day of administration), lenvatinib 3 mg/kg 5 times a week, HuBA-1-3D antibody 1 mg/kg twice a week, N=8.
Setting [7] is: Day 31 (6 days after completion of administration), lenvatinib 3 mg/kg, HuBA-1-3D antibody 1 mg/kg.
Setting [8] is: Day 38 (13 days after completion of administration), lenvatinib 3 mg/kg, HuBA-1-3D antibody 1 mg/kg.
[9] abbreviates: lenvatinib 3 mg/kg, HuBA-1-3D antibody 1 mg/kg.
The mark [10] stands for this setting: Day 21 (final day of administration), lenvatinib 10 mg/kg 5 times a week, HuBA-1-3D antibody 1 mg/kg twice a week, N=8.
Setting [11] is: Day 31 (10 days after completion of administration), lenvatinib 10 mg/kg, HuBA-1-3D antibody 1 mg/kg, N=8.
[12] abbreviates: Day 34 (13 days after completion of administration), lenvatinib 10 mg/kg, HuBA-1-3D antibody 1 mg/kg.
[13] abbreviates: primary therapeutic agent, unresectable hepatocellular carcinoma, whole treatment group.

As to `COc1cc2nccc(Oc3ccc(NC(=O)NC4CC4)c(Cl)c3)c2cc1C(N)=O` [lenvatinib, 4-[3-chloro-4-(cyclopropylcarbamoylamino)phenoxy]-7-methoxy-quinoline-6-carboxamide], the tumor volume in assay [1] (setting [6]) was found to be 268.1±175.7 mm^3; in assay [1] (setting [7]), 572.2±456.0 mm^3; in assay [1] (setting [8]) it was 1148.5±591.0 mm^3; in assay [2] (setting [10]) it was 326.2±188.7 mm^3; in assay [2] (setting [11]), 817.4±583.4 mm^3; in assay [2] (setting [12]), 796.2±461.7 mm^3. Besides, the tumor weight in assay [1] (setting [9]) was found to be 841.1 ± 515.8 mg. Further, the “animals sacrificed whose tumor volume exceeded 1500 mm^3” value in assay [2] (Day 31, lenvatinib 10 mg/kg) is recorded as “one of the 8 animals”. Also, the “tumor volume (mean±standard deviation)” value was found to be 400.9±160.9 mm^3 in assay [3] (lenvatinib 3 mg/kg oral); 200.2±133.3 mm^3 in assay [3] (lenvatinib 10 mg/kg oral); 136.2±33.8 mm^3 in assay [3] (lenvatinib 30 mg/kg oral); 892.5±220.7 mm^3 in assay [4] (lenvatinib 3 mg/kg oral); 506.8±215.7 mm^3 in assay [4] (lenvatinib 10 mg/kg oral); 380.0±146.8 mm^3 in assay [4] (lenvatinib 30 mg/kg oral). The “tumor volume ratio (T/C) relative to the vehicle group” value in assay [3] (lenvatinib 3 mg/kg) is listed as 38.2%; in assay [3] (lenvatinib 10 mg/kg), 19.1%; in assay [3] (lenvatinib 30 mg/kg), 13.0%; in assay [4] (lenvatinib 3 mg/kg), 76.7%; in assay [4] (lenvatinib 10 mg/kg) it was 43.6%; in assay [4] (lenvatinib 30 mg/kg) it was 32.7%. Further, the efficacy is on record as 46.9% in assay [5] (Japanese population (of 81 patients) assigned to the lenvatinib group) and 40.6% in assay [5] (setting [13]).
Consider `CNC(=O)c1cc(Oc2ccc(NC(=O)Nc3ccc(Cl)c(C(F)(F)F)c3)cc2)ccn1` [sorafenib], for which the efficacy in assay [5] (setting [13]) is 12.4%.

B1: HuBA-1-3D antibody: humanized anti-hDLK-1 antibody from WO2014/054820; H chain V region SEQ ID NO: 36, L chain V region SEQ ID NO: 46; GlymaxX produced (antibody, V domains shown)
VH: QVQLVQSGAEVKKPGASVKVSCKGSGYTFTDYAMHWVRQAPGQGLEWIGVISTYYGNTNYNQKFKGKATMTVDKSTSTAYMELRSLRSDDTAVYYCARGGLREYYYAMDYWGQGTMVTVSS
VL: DIVMTQSPDSLAVSLGERATINCKSSQSLLNSSNQKNYLAWYQQKPGQPPKLLVYFASTRESGVPDRFSGSGSGTDFTLTISSLQAEDVAVYYCQQHYSTPPTFGQGTKLEIK
modifications: GlymaxX glycoengineered
notes: humanized anti-hDLK-1 antibody from WO2014/054820; GlymaxX produced
With B1, the tumor volume in assay [1] (setting [6]) worked out at 144.6±111.2 mm^3; in assay [1] (setting [7]), 92.9±79.3 mm^3; in assay [1] (setting [8]), 402.3±364.4 mm^3; in assay [2] (setting [10]) it was 116.4±42.4 mm^3; in assay [2] (setting [11]), 394.0±169.8 mm^3; in assay [2] (setting [12]), 584.1±241.9 mm^3. For the same molecule, in assay [1] (setting [9]), the tumor weight stood at 392.3 ± 412.9 mg.
